Experimental data: patent US11518760B2 (Liverpool School of Tropical Medicine, priority 2017, dated 2022)

Each molecule was assayed on C6/36 Aedes albopictus cell line infected with Wolbachia pipientis (Wolbachia strain wAlbB) (assay: In vitro insect cell line assay (anti-Wolbachia screen, SYTO 11 high content imaging)). Conditions: 168 h; C6/36 Aedes albopictus cells infected with Wolbachia pipientis wAlbB, 7 days incubation, SYTO 11 imaging; read-out: In vitro anti-Wolbachia activity.
Assay type: cell-based
Outline: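 SYTO 11 staining (15 min), high-content imaging and texture analysis were the read-out on day 7. Before that, C6/36 mosquito cells carrying Wolbachia strain wAlbB were incubated at 26 °C with test compound at 5 μM final, alongside DMSO-only control wells.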

| Structure (SMILES) | EC50 [nM] |
| --- | --- |
| FC(F)(F)c1ccccc1CNc1nc(N2CCOCC23CCC3)nc2ncccc12 [Example 285, 2-(8-oxa-5-azaspiro[3.5]nonan-5-yl)-N-(2-(trifluoromethyl)benzyl)pyrido[2,3-d]pyrimidin-4-amine] | 10 to 100 |
| CC1(C#N)CCN(c2nc(NCc3cccnc3C(F)(F)F)c3cccnc3n2)CC1 [Example 250, 4-methyl-1-(4-(((2-(trifluoromethyl)pyridin-3-yl)methyl)amino)pyrido[2,3-d]pyrimidin-2-yl)piperidine-4-carbonitrile] | 0.01 to 1 |
| FC(F)(F)c1ccccc1CNc1nc(CN2CCC(Cl)CC2)nc2ncccc12 [Example 222] | 1000 to 100000 |
| CN(Cc1ccccc1)c1nc(NCCCN2CCCC2=O)c2sccc2n1 [Example 36, 1-(3-((2-(benzyl(methyl)amino)thieno[3,2-d]pyrimidin-4-yl)amino)propyl)pyrrolidin-2-one] | 1000 to 100000 |
| CC(C)Nc1nc(NCc2ccc(C(F)(F)F)cc2)c2sccc2n1 [Example 109, N^2-isopropyl-N^4-(4-(trifluoromethyl)benzyl)thieno[3,2-d]pyrimidine-2,4-diamine] | 1000 to 100000 |
| CC(C)N(C)c1nc(NCc2cccnc2C(F)(F)F)c2cccnc2n1 [Example 162, N^2-isopropyl-N^2-methyl-N^4-((2-(trifluoromethyl)pyridin-3-yl)methyl)pyrido[2,3-d]pyrimidine-2,4-diamine] | 0.01 to 1 |
| N#CC1CN(c2nc(NCc3ccccc3C(F)(F)F)c3cccnc3n2)C1 [Example 245, 1-(4-((2-(trifluoromethyl)benzyl)amino)pyrido[2,3-d]pyrimidin-2-yl)azetidine-3-carbonitrile] | 1 to 10 |
| FC(F)(F)c1ncccc1CNc1nc(CN2CCC(Cl)CC2)nc2ncccc12 [Example 227, 2-((4-chloropiperidin-1-yl)methyl)-N-((2-(trifluoromethyl)pyridin-3-yl)methyl)pyrido[2,3-d]pyrimidin-4-amine] | 100 to 1000 |
| FC(F)(F)c1cccc2c1CN(c1ncnc3ccsc13)C2 [Example 83] | 1000 to 100000 |
| FC(F)(F)OC1CCN(c2nc(NCc3cccnc3C(F)(F)F)c3cccnc3n2)C1 (stereo not shown) [Example 297, 2-(3-(trifluoromethoxy)pyrrolidin-1-yl)-N-((2-(trifluoromethyl)pyridin-3-yl)methyl)pyrido[2,3-d]pyrimidin-4-amine] | < 0.01 |
| CN(C)CCNc1nc(NCc2ccccc2C(F)(F)F)c2sccc2n1 [Example 89, N^2-(2-(dimethylamino)ethyl)-N^4-(2-(trifluoromethyl)benzyl)thieno[3,2-d]pyrimidine-2,4-diamine] | 1000 to 100000 |
| FC(F)(F)c1ncccc1CNc1nc(N2CCCCC2C(F)(F)F)nc2ncccc12 (stereo not shown) [Example 259, 2-(2-(trifluoromethyl)piperidin-1-yl)-N-((2-(trifluoromethyl)pyridin-3-yl)methyl)pyrido[2,3-d]pyrimidin-4-amine] | 0.01 to 1 |
| CN(C)c1nc(NCc2c(F)cccc2C(F)(F)F)c2cccnc2n1 [Example 169, N^4-(2-fluoro-6-(trifluoromethyl)benzyl)-N^2,N^2-dimethylpyrido[2,3-d]pyrimidine-2,4-diamine] | 100 to 1000 |
| N#CC1CCCN(c2nc(NCc3cccnc3C(F)(F)F)c3cccnc3n2)C1 (stereo not shown) [Example 251] | 1 to 10 |
| FC(F)(F)c1ncccc1CNc1nc(N2CCOCC2C2CC2)nc2ncccc12 (stereo not shown) [Example 253, 2-(3-cyclopropylmorpholino)-N-((2-(trifluoromethyl)pyridin-3-yl)methyl)pyrido[2,3-d]pyrimidin-4-amine] | 1 to 10 |
| CS(=O)(=O)c1ccccc1CNc1nc(Cl)nc2ccccc12 [Example 113] | 1000 to 100000 |
| CNCc1nc(NCc2ccccc2C(F)(F)F)c2cccnc2n1 [Example 145, 2-((methylamino)methyl)-N-(2-(trifluoromethyl)benzyl)pyrido[2,3-d]pyrimidin-4-amine] | 1000 to 100000 |
| FC1CN(c2nc(NCc3cccnc3C(F)(F)F)c3cccnc3n2)C1 [Example 200, 2-(3-fluoroazetidin-1-yl)-N-((2-(trifluoromethyl)pyridin-3-yl)methyl)pyrido[2,3-d]pyrimidin-4-amine] | 10 to 100 |
| CC(C)Nc1nc(NCc2ccc(C#N)cc2)c2cccnc2n1 [Example 126, N^4-(4-cyanobenzyl)-N^2-isopropylpyrido[2,3-d]pyrimidine-2,4-diamine] | 100 to 1000 |
| CC(C)Nc1nc(NCc2ccccc2C(F)(F)F)c2ccccc2n1 [Example 58, N^2-isopropyl-N^4-(2-(trifluoromethyl)benzyl)quinazoline-2,4-diamine] | 100 to 1000 |
| CC(C)Nc1nc(NCc2ccccc2F)c2ccccc2n1 [Example 135, N^4-(2-fluorobenzyl)-N^2-isopropylquinazoline-2,4-diamine] | 1000 to 100000 |
| FC(F)(F)c1cnn(-c2nc(NCc3cccnc3C(F)(F)F)c3cccnc3n2)c1 [Example 203, 2-(4-(trifluoromethyl)-1H-pyrazol-1-yl)-N-((2-(trifluoromethyl)pyridin-3-yl)methyl)pyrido[2,3-d]pyrimidin-4-amine] | 100 to 1000 |

| Structure (SMILES) | EC50 [nM] |
| --- | --- |
| CC(C)Nc1nc(NCc2ccc(S(C)(=O)=O)cc2)c2cccnc2n1 [Example 128, N^2-isopropyl-N^4-(4-(methylsulfonyl)benzyl)pyrido[2,3-d]pyrimidine-2,4-diamine] | 100 to 1000 |
| CNc1nc(NCc2ccccc2C(F)(F)F)c2cccnc2n1 [Example 143, N^2-methyl-N^4-(2-(trifluoromethyl)benzyl)pyrido[2,3-d]pyrimidine-2,4-diamine] | 10 to 100 |
| FC(F)O[C@H]1CCN(c2nc(NCc3cccnc3C(F)(F)F)c3cccnc3n2)C1 [Example 281, (S)-2-(3-(difluoromethoxy)pyrrolidin-1-yl)-N-((2-(trifluoromethyl)pyridin-3-yl)methyl)pyrido[2,3-d]pyrimidin-4-amine] | 0.01 to 1 |
| CC(C)Nc1nc(NCc2ccccc2Cl)c2sccc2n1 [Example 17, N^4-(2-chlorobenzyl)-N^2-isopropylthieno[3,2-d]pyrimidine-2,4-diamine] | 10 to 100 |
| FC(F)(F)c1ccccc1CNc1nc(Cl)nc2ccsc12 [Example 46, 2-chloro-N-(2-(trifluoromethyl)benzyl)thieno[3,2-d]pyrimidin-4-amine] | 10 to 100 |
| N#CC1CCCN(c2nc(NCc3ccccc3C(F)(F)F)c3cccnc3n2)C1 (stereo not shown) [Example 262, 1-(4-((2-(trifluoromethyl)benzyl)amino)pyrido[2,3-d]pyrimidin-2-yl)piperidine-3-carbonitrile] | 0.01 to 1 |
| FC(F)(F)c1ncccc1CNc1nc(NC2COC2)nc2ncccc12 [Example 158, N^2-(oxetan-3-yl)-N^4-((2-(trifluoromethyl)pyridin-3-yl)methyl)pyrido[2,3-d]pyrimidine-2,4-diamine] | 100 to 1000 |
| CC(C)Nc1nc(NCc2ccc(C(F)(F)F)cc2)c2cccnc2n1 [Example 129, N^2-isopropyl-N^4-(4-(trifluoromethyl)benzyl)pyrido[2,3-d]pyrimidine-2,4-diamine] | 100 to 1000 |
| CC(C)Nc1nc(NCc2c(Cl)cccc2Cl)c2sccc2n1 [Example 27, N^4-(2,6-dichlorobenzyl)-N-isopropylthieno[3,2-d]pyrimidine-2,4-diamine] | 1000 to 100000 |
| CC(C)Nc1nc(NC(C)c2ccccc2C(F)(F)F)c2sccc2n1 (stereo not shown) [Example 53, N^2-isopropyl-N^4-(1-(2-(trifluoromethyl)phenyl)ethyl)thieno[3,2-d]pyrimidine-2,4-diamine] | 1 to 10 |
| CCN(CC)c1ncnc2ccsc12 [Example 39] | 1000 to 100000 |
| FC(F)(F)c1ncccc1CNc1nc(N2CCC2)nc2ncccc12 [Example 163, 2-(azetidin-1-yl)-N-((2-(trifluoromethyl)pyridin-3-yl)methyl)pyrido[2,3-d]pyrimidin-4-amine] | 10 to 100 |
| CC(C)Nc1nc(N2CCCN2c2ccccc2C(F)(F)F)c2cccnc2n1 [Example 189, N-isopropyl-4-(2-(2-(trifluoromethyl)phenyl)pyrazolidin-1-yl)pyrido[2,3-d]pyrimidin-2-amine] | 1000 to 100000 |
| FC1(F)CCN(Cc2nc(NCc3ccccc3C(F)(F)F)c3cccnc3n2)CC1 [Example 223] | 100 to 1000 |
| FC1(F)CCN(c2nc(N3CCC3c3ccccc3C(F)(F)F)c3cccnc3n2)CC1 (stereo not shown) [Example 213, 2-(4,4-difluoropiperidin-1-yl)-4-(2-(2-(trifluoromethyl)phenyl)azetidin-1-yl)pyrido[2,3-d]pyrimidine] | 10 to 100 |
| FC(F)(F)c1ncccc1CNc1ncnc2ccsc12 [Example 103, N-((2-(trifluoromethyl)pyridin-3-yl)methyl)thieno[3,2-d]pyrimidin-4-amine] | 10 to 100 |
| FC(F)(F)c1ncccc1CNc1nc(N2CC3CC2CO3)nc2ncccc12 (stereo not shown) [Example 255, 2-(2-oxa-5-azabicyclo[2.2.1]heptan-5-yl)-N-((2-(trifluoromethyl)pyridin-3-yl)methyl)pyrido[2,3-d]pyrimidin-4-amine] | 1 to 10 |
| CC(C)Nc1nc(NCc2ccc(C(F)(F)F)cc2)c2ncccc2n1 [Example 124, N^2-isopropyl-N^4-(4-(trifluoromethyl)benzyl)pyrido[3,2-d]pyrimidine-2,4-diamine] | 1000 to 100000 |
| FC(F)(F)c1ccccc1CNc1nc(N2CCC(C(F)(F)F)C2)nc2ncccc12 (stereo not shown) [Example 266, N-(2-(trifluoromethyl)benzyl)-2-(3-(trifluoromethyl)pyrrolidin-1-yl)pyrido[2,3-d]pyrimidin-4-amine] | 1 to 10 |
| Cc1nc(NC(C)c2ccccc2C(F)(F)F)c2sccc2n1 (stereo not shown) [Example 65, 2-methyl-N-(1-(2-(trifluoromethyl)phenyl)ethyl)thieno[3,2-d]pyrimidin-4-amine] | 10 to 100 |
| COc1ccc(CNc2nc(NC(C)C)nc3ccsc23)cc1 [Example 131, N^2-isopropyl-N^4-(4-methoxybenzyl)thieno[3,2-d]pyrimidine-2,4-diamine] | 1000 to 100000 |
